Measurements: patent publication US10357514B2, “Treatment of cancer using anti-CD19 Chimeric Antigen Receptor” (The Trustees of the University of Pennsylvania, priority 2014, dated 2019)
Marks after values point to notes of the source that are not given here.

Tests used:
[1] = Adverse event assessment in elderly volunteers, randomized placebo-controlled trial
[2] = Energy and exercise questionnaires one year after dosing; assay type: in vivo, human; settings: 0.5 mg daily cohort
[3] = system: PD-1 positive CD4 and CD8 T cells; assay: Immunophenotyping of PBMC by flow cytometry; assay type: in vivo, human
pneumococcal serotypes = assay: Antibody titers after pneumococcal vaccination (Pneumovax 23); assay type: in vivo, human; settings: 7 serotypes measured; all 3 RAD cohorts
Procedure: Elderly volunteers >=65 years of age were randomized to one of the 3 RAD001 treatment groups (50 subjects per arm) or placebo (20 subjects per arm). Subjects were treated with study drug for 6 weeks, given a 2 week break, and then received influenza (Aggrippal, Novartis) and pneumoccal (Pneumovax 23, Merck), vaccinations. Response to influenza vaccination was assessed by measuring the geometric mean titers (GMTs) by hemagglutination inhibition assay to the 3 influenza strains (H1N1, H3N2 and B influenza subtypes) in the influenza vaccine 4 weeks after vaccination. The primary endpoints of the study were (1) safety and tolerability and (2) a 1.2 fold increase in influenza titers as compared to placebo in 2/3 of the influenza vaccine strains 4 weeks after vaccination. This endpoint was chosen because a 1.2 fold increase in influenza titers is associated with a decrease in influenza illness post vaccination, and therefore is clinically relevant. […] The pneumococcal vaccine contains antigens from 23 pneumococcal serotypes. Antibody titers to 7 of the serotypes were measured in our subjects.

[4] = system: A/H3N2 strain A/Victoria/361/11; assay: HI titer and seroconversion to heterologous influenza strain; assay type: in vivo, human; settings: for Percentage of subjects who seroconvert to heterologous strain A/H3N2 A/Victoria/361/11: 4 weeks after seasonal influenza vaccination
[5] = system: PD-1-positive CD4 and CD8 and PD-1-negative CD4 T cells; assay: FACS analysis of PD-1 on T cells in PBMC samples of subjects given RAD001; assay type: in vivo, human
[6] = week 6, pooled cohort, adjusted for baseline PD-1
[7] = week 12, pooled cohort, adjusted for baseline PD-1
[8] = week 12, 0.5 mg/Day, 5 mg/Week and 20 mg/Week cohorts

Compound: CO[C@H]1C[C@@H]2CC[C@@H](C)[C@@](O)(O2)C(=O)C(=O)N2CCCC[C@H]2C(=O)O[C@H]([C@H](C)C[C@@H]2CC[C@@H](OCCO)[C@H](OC)C2)CC(=O)[C@H](C)/C=C(\C)[C@@H](O)[C@@H](OC)C(=O)[C@H](C)C[C@H](C)/C=C/C=C/C=C/1C [RAD001, (1R,9S,12S,15R,16E,18R,19R,21R,23S,24E,26E,28E,30S,32S,35R)-1,18-dihydroxy-12-{(1R)-2-[(1S,3R,4R)-4-(2-hydroxyethoxy)-3-methoxycyclohexyl]-1-methylethyl}-19,30-dimethoxy-15,17,21,23,29,35-hexamethyl-11,36-dioxa-4-aza-tricyclo[30.3.1.04,9]hexatriaconta-16,24,26,28-tetraene-2,3,10,14,20-pentaone]
- Treatment-related AEs: Patients with AE(s) ([1]; 5 mg weekly, N = 53): 20 (37.7%) n (%)
- Treatment-related AEs: Total AE(s) ([1]; 5 mg weekly, N = 53): 46 n (%)
- Treatment-related AE incidence: Blood cholesterol increased ([1]; 20 mg weekly, N = 53): 2 (3.8%) n (%)
- Treatment-related AE incidence: Conjunctivitis ([1]; 20 mg weekly, N = 53): 0 n (%)
- Treatment-related AE incidence: Diarrhea ([1]; 20 mg weekly, N = 53): 1 (1.9%) n (%)
- Treatment-related AE incidence: Dry mouth ([1]; 20 mg weekly, N = 53): 2 (3.8%) n (%)
- Treatment-related AE incidence: Dyspepsia ([1]; 20 mg weekly, N = 53): 2 (3.8%) n (%)
- Treatment-related AE incidence: Erythema ([1]; 20 mg weekly, N = 53): 0 n (%)
- Treatment-related AE incidence: Fatigue ([1]; 20 mg weekly, N = 53): 4 (7.5%) n (%)
- Treatment-related AE incidence: Headache ([1]; 20 mg weekly, N = 53): 9 (17.0%) n (%)
- Treatment-related AE incidence: Insomnia ([1]; 20 mg weekly, N = 53): 1 (1.9%) n (%)
- Treatment-related AE incidence: Limb discomfort ([1]; 20 mg weekly, N = 53): 0 n (%)
- Treatment-related AE incidence: Low density lipoprotein increased ([1]; 20 mg weekly, N = 53): 2 (3.8%) n (%)
- Treatment-related AE incidence: Mouth ulceration ([1]; 20 mg weekly, N = 53): 9 (17.0%) n (%)
- Treatment-related AE incidence: Mucosal inflammation ([1]; 20 mg weekly, N = 53): 2 (3.8%) n (%)
- Treatment-related AE incidence: Neutropenia ([1]; 20 mg weekly, N = 53): 3 (5.7%) n (%)
- Treatment-related AE incidence: Oral pain ([1]; 20 mg weekly, N = 53): 1 (1.9%) n (%)
- Treatment-related AE incidence: Paresthesia oral ([1]; 20 mg weekly, N = 53): 0 n (%)
- Treatment-related AE incidence: Pruritus ([1]; 20 mg weekly, N = 53): 1 (1.9%) n (%)
- Treatment-related AE incidence: Stomatitis ([1]; 20 mg weekly, N = 53): 2 (3.8%) n (%)
- Treatment-related AE incidence: Thrombocytopenia ([1]; 20 mg weekly, N = 53): 2 (3.8%) n (%)
- Treatment-related AE incidence: Tongue ulceration ([1]; 20 mg weekly, N = 53): 0 n (%)
- Treatment-related AE incidence: Urinary tract infection ([1]; 20 mg weekly, N = 53): 2 (3.8%) n (%)
- Treatment-related AEs: Patients with AE(s) ([1]; 20 mg weekly, N = 53): 27 (50.9%) n (%)
- Treatment-related AEs: Total AE(s) ([1]; 20 mg weekly, N = 53): 109 n (%)
- tolerability ([1]; 6 weeks, particularly the 0.5 mg daily and 5 mg weekly dosing regimens): well tolerated
- deaths during the study ([1]; all cohorts): No deaths
- severe AEs assessed as related to RAD001 ([1]; mouth ulcers, subject treated with 20 mg weekly): one
- self-reported energy and exercise ability compared to placebo [2]: increased energy and exercise ability
- average RAD001 trough level (5 mg weekly, lower limit of quantification 0.3 ng/ml): below detection limits
- trough level of study dosing regimens lower than approved transplant and oncology regimens (dosing regimens used in the immunization study): 3-20 fold
- percentage of PD-1 negative CD4 T cells compared to placebo ([3]; RAD001 cohorts): increased
- percentage of CD4 PD-1 positive T cells ([3]; week 6 and 12, all RAD001 cohorts): decreased from baseline
- percentage of CD8 PD-1 positive cells ([3]; week 6 and 12, two lower dose RAD001 cohorts): decreased from baseline
- pneumococcal antibody titers compared to placebo (pneumococcal serotypes): 6/7 serotypes were increased
- Percentage of subjects who seroconvert to heterologous strain A/H3N2 A/Victoria/361/11 ([4]; 0.5 mg daily): 38%
- Percentage of subjects who seroconvert to heterologous strain A/H3N2 A/Victoria/361/11 ([4]; 5 mg weekly): 39%*
- Percentage of subjects who seroconvert to heterologous strain A/H3N2 A/Victoria/361/11 ([4]; 20 mg weekly): 40%*
- increase in HI GMT ratio for heterologous strain versus placebo ([4]; RAD001 cohorts): higher
- H3N2 heterologous strain seroconversion rate ([4]; pooled RAD001 cohorts, versus 20% placebo, p=0.007): 39%
- decrease in PD-1+ CD4 T cells compared to placebo [5, 6]: 30.2%
- decrease in PD-1-positive CD8 T cells compared to placebo [5, 6]: 37.4%
- decrease in PD-1-positive CD4 T cells compared to placebo [5, 7]: 32.7%
- decrease in PD-1-positive CD8 T cells compared to placebo [5, 7]: 41.4%
- decrease in PD-1-positive CD4 T cells as compared to placebo [5, 8]: −37.1-−28.5%
- decrease in PD-1-positive CD8 T cells as compared to placebo [5, 8]: −43.3-−38.5%
- increase in PD-1-negative CD4 T cells as compared to placebo [5, 8]: 3.0-4.9%
